As a reminder, the IC50 is the concentration needed to halve the response being measured.

The structures appear in SMILES notation.

Assay [1] deals with T1, Human recombinant 5-lipoxygenase (Homo sapiens, UniProt P09917).
T1 construct: made in house; host or cells: E. coli
T1 sequence (P09917 1-674): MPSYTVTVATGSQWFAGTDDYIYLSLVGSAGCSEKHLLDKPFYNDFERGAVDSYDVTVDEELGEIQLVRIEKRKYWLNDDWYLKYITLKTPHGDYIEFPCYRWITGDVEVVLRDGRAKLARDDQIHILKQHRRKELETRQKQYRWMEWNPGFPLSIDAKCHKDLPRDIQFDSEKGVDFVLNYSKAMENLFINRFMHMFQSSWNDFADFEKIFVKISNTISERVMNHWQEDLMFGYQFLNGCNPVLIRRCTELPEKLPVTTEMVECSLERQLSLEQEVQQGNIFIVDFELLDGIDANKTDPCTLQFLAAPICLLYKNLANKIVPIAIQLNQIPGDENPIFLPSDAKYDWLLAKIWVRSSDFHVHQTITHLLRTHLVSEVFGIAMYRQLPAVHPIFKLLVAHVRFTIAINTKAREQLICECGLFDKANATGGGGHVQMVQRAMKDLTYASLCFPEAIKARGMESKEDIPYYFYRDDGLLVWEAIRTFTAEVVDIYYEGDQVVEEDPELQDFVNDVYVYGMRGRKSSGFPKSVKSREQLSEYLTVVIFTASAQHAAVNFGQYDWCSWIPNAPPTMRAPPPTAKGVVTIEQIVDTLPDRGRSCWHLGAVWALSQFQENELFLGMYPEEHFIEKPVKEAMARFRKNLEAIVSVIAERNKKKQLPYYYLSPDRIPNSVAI
Put plainly: Recombinant 5-Lipoxygenase Inhibition Assay. The class given is biochemical. The following applies: 25° C., 8 minutes, absorbance at 240 nm. The protocol:
The compounds of the present invention were evaluated with respect to 5-lipoxygenase inhibition according to the Recombinant 5-Lipoxygenase Inhibition Assay described below.
Human 5-lipoxygenase expressed in E. coli as a soluble protein was prepared in the manner described by M. Noguchi et al., "Expression of Human 5-Lipoxygenase cDNA in E. coli," FEBS Letters, Vol. 249, No. 2, 267-270 (1989), which is incorporated herein by reference. The human 5-lipoxygenase was partially purified by ion exchange chromatography and stored in 50 mM Tris-HCl buffer (pH 8.1) containing 150 mM NaCl, 2 mM EDTA, 2 mM DTT, and 50% glycerol at -70° C. before use.
The following solutions were prepared as indicated: CaCl2 /ATP, 12.5 mM CaCl2 and 5 mM ATP in H2 O; arachidonic acid, 4 mM in ethanol; potassium phosphate buffer, 50 mM potassium phosphate and 0.1 mM EDTA, pH 7.2. Test compounds were first prepared at 10 mM in DMSO and further diluted to desirable concentrations with DMSO.
The assay was carried out in a quartz cuvette to which 15 μl CaCl2 /ATP, 7.5 μl arachidonic acid, 7.5 μl ethanol or test compound, and 710 μl potassium phosphate buffer, in that order, were added and mixed. The mixture was prewarmed to 25° C. The enzymatic reaction was started by adding 10 μl of 5-lipoxygenase enzyme (~0.2 mg protein), and the formation of the reaction product 5-HPETE/5-HETE at 25° C. for 8 minutes was determined by measuring the increase in the absorbance at 240 nm using a Beckman DU-7 spectrophotometer.
The results for this assay are expressed in terms of activity with respect to 5-lipoxygenase inhibition as an IC50 value (50% inhibitory concentration).

The test system of assay [2] is Thromboxane production by calcium ionophore stimulated human blood. Put plainly: Human Whole Blood Assay, thromboxane production (calcium ionophore stimulated). Type of assay: cell-based. The settings on record: calcium ionophore A23187, thromboxane. The procedure:
(§1) (c) LTB4 and Thromboxane Production by Calcium Ionophore Stimulated Human Blood--Human Whole Blood LTB4 Assay
(§2) The compounds of the present invention were evaluated with respect to 5-lipoxygenase inhibition according to the Human Whole Blood LTB4 Assay described below.
(§3) Human whole blood was collected in heparin containing Vacutainer brand tubes. The blood was diluted with RPMI-1640 cell culture media [1:4] (Gibco, Grand Island, N.Y.) and 200 microliters were added per well in 96 well microtiter plates. Compounds of the present invention diluted in dimethylsulfoxide were added to the blood and allowed to incubate for 15 minutes at 37° C. in a humidified incubator. Calcium ionophore A23187 [20 mcg/ml final concentration, Sigma Chemical Co., St. Louis, Mo.] was added, and the incubation was continued for 10 minutes. The incubation was terminated by centrifugation [833 g, 10 minutes at 4° C.]. Supernatants were analyzed for LTB4 and thromboxane by commercially available enzyme-linked immunoassays [Caymen Chemical Co., Ann Arbor, Mich.]. Test compounds which inhibit 5-lipoxygenase in this assay inhibit the formation of LTB4 and cause reduced levels of this agent in the supernatant.
(§4) The results of this assay are expressed in terms of activity with respect to 5-lipoxygenase inhibition as an IC50 value (50% inhibitory concentration).

Assay [3] relates to TPA-induced ear inflammation (Mouse, Ear). Put plainly: Tetradecanoylphorbol Acetate (TPA) Assay (TPA-induced mouse ear inflammation). The class given is in vivo. The following applies: 50 mpk, ip + 120 minute; for TPA Edema (% Inhibition): ear thickness. The procedure: The compounds of the present invention were evaluated with respect to 5-lipoxygenase inhibition according to the Tetradecanoylphorbol Acetate (TPA) Assay which is described in Rao et al., "Comparative Evaluation of Arachidonic Acid (AA)--And Tetradecanoylphorbol Acetate (TPA)-Induced Dermal Inflammation." Inflammation, Vol. 17, No. 6, 723-741 (1993), which is incorporated herein by reference.
In this study, selective 5-lipoxygenase inhibitors, such as zileuton, MK-886, LTB4 and LTD4 receptor […] were evaluated in acute inflammatory responses elicited by the topical application of TPA to the ears of mice. The increases in edema and myeloperoxidase (MPO) were used as readouts of inflammatory responses.
Animals. Female BALB/c mice (17-25 g; Jackson Labs, Bar Barbor, Me.) or male Swiss Webster mice (Charles River, Portage, Mich.) were used in the studies. The animals were housed in a vivarium with a 12-hour lighting schedule (0600-1800 hours on) with free access to food and water. Housing and experimental procedures were conducted according to institutionally approved (Monsanto, St. Louis, Mo. and National Institute of Health) guidelines.
Drugs and Reagents. Hexadecyltrimethylammonium bromide (HTAB), and TPA were purchased from Sigma Chemical Co. (St. Louis, Mo.). Human polymorphonuclear leukocyte myeloperoxidase (20 units/mg protein) was obtained from Calbiochem (San Diego, Calif.). One unit of MPO was defined as the activity of the enzyme that oxidizes 1 μmol of hydrogen peroxide per minute at 25° C.
TPA Inflammation Model. […] Four hours following the application of TPA, increases in ear thickness were measured and ears were excised for MPO measurements.
Measurement of MPO. […] The rate of change of absorbance was monitored in kinetic mode by a plate reader (Molecular Devices, Menlo Park, Calif.). Levels of MPO in lavage samples were determined from the calibration curves using human neutrophil MPO as the reference standard. The levels of MPO were expressed as milliunits per ear. […]

Assay [4] has as its system LTB4 production by calcium ionophore stimulated human blood. Briefly: Human Whole Blood LTB4 Assay (calcium ionophore stimulated LTB4 production). The following applies: calcium ionophore A23187, LTB4. The class given is cell-based. The procedure:
as §1, §2, §3, §4

Turning to `CC(C)(C)c1cc(SCC(O)Cn2ccc3ncnc-3c2)cc(C(C)(C)C)c1O` (racemic) [Compound 27, (±) 2,6-bis(1,1-dimethylethyl)-4-[[2-hydroxy-3-(5H-imidazo[4,5-c]pyridin-5-yl]propylthio]phenol Hydrate], the IC50 was determined as 1.1 ± 0.23 µM in assay [1], 37.3 µM in assay [2] and 7.42 µM in assay [4]. The “TPA Edema (% Inhibition)” value in assay [3] was found to be 46%.
For `CC(C)(C)c1cc(SCCCn2ccc3ncnc-3c2)cc(C(C)(C)C)c1O` [Compound 5, 2,6-bis(1,1-dimethylethyl)-4-[[3-(5H-imidazo-[4,5-c]pyridin-5-yl)propyl]thio]phenol], the IC50 in assay [1] stood at 0.57 ± 0.07 µM; in assay [2], 50 µM; in assay [4], 13.3 µM. For the same molecule, in assay [3], the “TPA Edema (% Inhibition)” value was found to be 42%. Also, the “TPA MPO (% Inhibition)” value in assay [3] (myeloperoxidase) was 24%.
For `CC(C)(C)c1cc(SCCn2ccc3ncnc-3c2)cc(C(C)(C)C)c1O` [Compound 8, 2,6-bis(1,1-dimethylethyl)-4-[[2-(5H-imidazo-[4,5-c]pyridin-5-yl)ethyl]thio]phenol Hydrate], the IC50 in assay [1] was determined as 4.48 ± 0.36 µM.
On the same count and under the same terms, under `CC(C)(C)c1cc(SCCCCn2ccc3ncnc-3c2)cc(C(C)(C)C)c1O` [Compound 14, 2,6-bis(1,1-dimethylethyl)-4-[[4-(5H-imidazo-[4,5-c]pyridin-5-yl)butyl]thiophenol Hydrate] stands 0.41 ± 0.02 µM.
On to `CC(C)(C)c1cc(SCCCn2cnc3ccncc32)cc(C(C)(C)C)c1O` [Compound 15, 2,6-bis(1,1-dimethylethyl)-4-[[3-(1H-imidazo[5,4-c]pyridin-1-yl]propyl]thio]phenol], for which the IC50 came out at 0.49 ± 0.04 µM in assay [1], 14.4 µM in assay [2] and 6.27 µM in assay [4].
With `CC(C)(C)c1cc(SCCCn2cnc3cnccc32)cc(C(C)(C)C)c1O` [Compound 16, 2,6-bis(1,1-dimethylethyl)-4-[[3-(1H-imidazo[4,5-c]pyridin-1-yl)propyl]thio]phenol], the IC50 in assay [1] was determined as 0.34 ± 0.1 µM.
The same measure, in the same setting: the figure for `CC(C)(C)c1cc(SCCCn2cnc3cccnc32)cc(C(C)(C)C)c1O` [Compound 18, (2,6-bis(1,1-dimethylethyl)-4-[[3-(1H-imidazo[5,4-b]pyridin-1-yl)propyl]thio]phenol Hydrate] is 0.32 ± 0.02 µM.
Turning to `CC(C)(C)c1cc(SCCCn2cnc3ncccc32)cc(C(C)(C)C)c1O` [Compound 19, 2,6-bis(1,1-dimethylethyl)-4-[[3-1H-imidazo[4,5-b]pyridin-1-yl)propyl]thio]-phenol Hydrate], the IC50 in assay [1] is 0.36 ± 0.07 µM; in assay [2], > 39 µM; in assay [4] it was 6.62 µM.
In the same order, the values of `CC(C)(C)c1cc(SCCCn2cnc3ccccc32)cc(C(C)(C)C)c1O` [Compound 21, 2,6-bis(1,1-dimethylethyl)-4-[[3-(1H-benzimidazol-1-yl)propyl]thio]phenol] are 0.14 ± 0.02 µM, 18.6 µM and 2.26 µM.
For `CC(C)(C)c1cc(SCCCn2ccc3ccccc32)cc(C(C)(C)C)c1O` [Compound 24, 2,6-bis(1,1-dimethylethyl)-4-[[3-(1H-indol-1-yl)propyl]thio]phenol Hydrate], the IC50 in assay [1] came to 0.48 ± 0.09 µM.
Take `CC(C)(C)c1cc(SCCSc2nc3ccccc3o2)cc(C(C)(C)C)c1O` [Compound 26, 2,6-bis(1,1-dimethylethyl)-4-[[2-[(1,3-benzoxazol-2-yl)thio]ethyl]thio]phenol Hydrate]: the values for the half-inhibitory concentration (IC50) in assay [1], in assay [2] and in assay [4] were 0.93 ± 0.16 µM, 9.1 µM and 11.1 µM, respectively.
The corresponding values for `CC(C)(C)c1cc(SCc2nc3cccnc3[nH]2)cc(C(C)(C)C)c1O` [Compound 29, 2,6-bis(1,1-dimethylethyl)-4-[[(3H-imidazo-[4,5-b]pyridin-2-yl)methyl]thio]phenol] are 1.8 ± 0.3 µM, 50 µM and 20.1 µM.

Source of the values: patent publication US5635514A, “Heteroaralkyl and heteroarylthioalkyl thiophenolic compounds as 5-lipoxgenase inhibitors” (G. D. Searle & Company, priority 1994, dated 1997).
